The values below come from ChEMBL document CHEMBL1201862, “PubChem BioAssay data set” (2004).

Some test systems named below: A549; CCRF-CEM; HCT-15; HOP-62; KM12; MOLT-4; Malme-3M; NCI/ADR-RES; OVCAR-5; OVCAR-8; RPMI-8226; RXF 393; SF-295; SK-MEL-28; SK-OV-3; SNB-19; U-251; UACC-62; ACHN; EKVX.
Assay in all cases: NCI-60 cell line screen, 48 h

SMILES strings stand for the structures.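 How tested: cells in 96-well plates exposed to compound for 48 hours at five concentrations. GI50 is the concentration that inhibits growth by half.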 Activity calls are given as the source filed them. No stated cut-off is given here; in the data, active = GI50 up to about 1.1 µM and inactive = higher.

With `O=S(=O)(CCBr)CCBr`, the GI50 is 13.9 µM (inactive) with A549; 2.96 µM (inactive) in the assay on CCRF-CEM; 2.64 µM in the assay with HCT-15; 0.506 µM (active) in the assay on HOP-62; 13.9 µM (inactive) with KM12; 2.58 µM (inactive) with MOLT-4. In addition, the GI50 in the assay with Malme-3M was 3.17 µM (inactive); with NCI/ADR-RES it was 2.17 µM (inactive); in the assay on OVCAR-5 it was 13.7 µM (inactive); with OVCAR-8, 2.32 µM (inactive); in the assay with RPMI-8226, 4.53 µM (inactive); in the assay with RXF 393, 2.17 µM (inactive). For the same compound, the GI50 was 15.7 µM (inactive) with SF-295; 2.67 µM (inactive) in the assay with SK-MEL-28; 19.3 µM (inactive) in the assay with SK-OV-3; 17.6 µM (inactive) with SNB-19; 15.7 µM (inactive) in the assay with U-251; 2.96 µM (inactive) with UACC-62.
As for `Cc1cc(C)c2c(c1)CC1(Cc3c(C)ccc(C)c3C1=O)C2=O` (stereo not drawn), the GI50 in the assay on A549 is > 100 µM (inactive); in the assay with ACHN, > 100 µM (inactive); in the assay on CCRF-CEM, > 100 µM (inactive); in the assay with EKVX it was > 100 µM (inactive); in the assay with HCT-15, greater than 100 µM; in the assay with KM12, > 100 µM (inactive). For the same compound, the GI50 in the assay with MOLT-4, in the assay with Malme-3M, in the assay on NCI/ADR-RES, with OVCAR-5, in the assay on OVCAR-8 and in the assay with RPMI-8226 was > 100 µM (inactive) in each case. Moreover, the GI50 in the assay on RXF 393, in the assay with SF-295, with SK-MEL-28, in the assay with SNB-19, in the assay with U-251 and in the assay on UACC-62 was > 100 µM (inactive) throughout.
For the compound `CC(C)(CO)NC(=O)c1cccc(C(=O)NC(C)(C)CO)c1Br`, the GI50 with A549 was > 100 µM (inactive); in the assay with ACHN, > 100 µM (inactive); in the assay on EKVX, > 100 µM (inactive); in the assay on HCT-15 it was greater than 100 µM; in the assay with HOP-62, > 100 µM (inactive); in the assay with KM12, > 100 µM (inactive). Besides, the GI50 in the assay on MOLT-4, in the assay with Malme-3M, with NCI/ADR-RES, with OVCAR-5, with OVCAR-8 and in the assay with RPMI-8226 was > 100 µM (inactive) in each case. Moreover, the GI50 in the assay with RXF 393 was 7.83 µM (inactive); in the assay with SK-MEL-28 it was > 100 µM (inactive); with SNB-19, > 100 µM (inactive); in the assay with U-251 it was > 100 µM (inactive); with UACC-62 it was > 100 µM (inactive).
With `CC(=O)C(=O)NC1/C=C(C)\C=C/C(O)C/C=C(C)\C=C/C(O)CC2OC(=O)C1(C)C(=O)C2C` (stereo not drawn), the GI50 in the assay on A549 is > 100 µM (inactive); with CCRF-CEM, > 76.7 µM (inactive); in the assay on EKVX, > 100 µM (inactive); in the assay on HCT-15, greater than 100 µM; in the assay on HOP-62, > 100 µM (inactive); with KM12, > 100 µM (inactive). In addition, the GI50 in the assay on MOLT-4 is > 31.2 µM (inactive); in the assay with Malme-3M, > 100 µM (inactive); in the assay with NCI/ADR-RES, > 100 µM (inactive); in the assay on OVCAR-5, > 100 µM (inactive); in the assay on OVCAR-8 it was > 100 µM (inactive); in the assay on RPMI-8226, > 55.1 µM (inactive). Besides, the GI50 with RXF 393, in the assay with SF-295, in the assay on SK-MEL-28, with SK-OV-3, with SNB-19 and in the assay with U-251 was > 100 µM (inactive) throughout. Moreover, the GI50 in the assay with UACC-62 was > 100 µM (inactive).
On to `CCN(CC)CCCOC(=O)/C=C/c1c(C)[nH]c(=O)[nH]c1=O`, for which the GI50 was > 625 µM (inactive) in the assay on A549; > 625 µM (inactive) in the assay with CCRF-CEM; > 625 µM (inactive) with EKVX; greater than 625 µM with HCT-15; > 625 µM (inactive) in the assay with HOP-62; > 625 µM (inactive) in the assay on KM12. Also, the GI50 in the assay with MOLT-4 was > 625 µM (inactive); in the assay on Malme-3M, > 625 µM (inactive); in the assay with NCI/ADR-RES it was > 625 µM (inactive); in the assay on OVCAR-5, > 625 µM (inactive); in the assay on OVCAR-8, 135 µM (inactive); with RPMI-8226 it was > 625 µM (inactive). Also, the GI50 with RXF 393 was > 99.1 µM (inactive); with SF-295 it was 525 µM (inactive); in the assay on SK-MEL-28, > 625 µM (inactive); in the assay with SK-OV-3 it was > 625 µM (inactive); in the assay on SNB-19, > 625 µM (inactive); in the assay with U-251, > 625 µM (inactive). Moreover, the GI50 in the assay with UACC-62 is > 625 µM (inactive).
Regarding `CSc1nc(NC2OC(CO)C(O)C(O)C2O)c(N)c(=O)n1C` (stereo not drawn), the GI50 in the assay with A549 is > 100 µM (inactive); in the assay on CCRF-CEM, > 100 µM (inactive); in the assay on EKVX, > 100 µM (inactive); with HCT-15, greater than 100 µM; in the assay on HOP-62, > 100 µM (inactive); in the assay with KM12, > 100 µM (inactive). For the same compound, the GI50 in the assay with MOLT-4, in the assay with Malme-3M, in the assay on NCI/ADR-RES, in the assay on OVCAR-5, in the assay with OVCAR-8 and in the assay on RPMI-8226 was > 100 µM (inactive) in each case. The GI50 in the assay on RXF 393, in the assay on SF-295, in the assay with SK-MEL-28, in the assay with SK-OV-3, in the assay with SNB-19 and in the assay with U-251 was > 100 µM (inactive) each time. The GI50 in the assay on UACC-62 was > 100 µM (inactive).
For the compound `CC(C)c1ccccc1SC1CC(=O)CC(Sc2ccccc2C(C)C)C12O[C@H](c1ccccc1)[C@@H](c1ccccc1)O2` (stereo partly drawn), the GI50 in the assay with A549 was > 100 µM (inactive); in the assay on ACHN, 30.3 µM (inactive); with CCRF-CEM, 13.4 µM (inactive); with EKVX it was > 100 µM (inactive); in the assay on HCT-15, 31.7 µM; in the assay on HOP-62 it was > 100 µM (inactive). Further, the GI50 in the assay with KM12 is 59.6 µM (inactive); in the assay with MOLT-4 it was 23.4 µM (inactive); in the assay on NCI/ADR-RES, 47 µM (inactive); with OVCAR-5, > 100 µM (inactive); in the assay on OVCAR-8, 35.4 µM (inactive); in the assay with RPMI-8226 it was 17.3 µM (inactive). In addition, the GI50 in the assay with RXF 393 is 19.9 µM (inactive); with SF-295 it was > 100 µM (inactive); with SK-MEL-28, 38.5 µM (inactive); in the assay on SK-OV-3 it was > 100 µM (inactive); in the assay with SNB-19, > 100 µM (inactive); in the assay with U-251 it was 20.3 µM (inactive). In addition, the GI50 with UACC-62 was 28.4 µM (inactive).
As for `COc1cc(O)c(Cc2ccccc2O)c(O)c1C(=O)CCc1ccccc1` [UVARETIN], the GI50 in the assay on A549 was 5.92 µM (inactive); in the assay on CCRF-CEM it was 6.21 µM (inactive); in the assay on EKVX it was 6.19 µM (inactive); with HCT-15 it was 5.71 µM; in the assay with HOP-62, 2.47 µM (inactive); with KM12, 6.81 µM (inactive). In addition, the GI50 is 3.85 µM (inactive) in the assay with MOLT-4; 4.89 µM (inactive) in the assay on Malme-3M; 5.66 µM (inactive) with NCI/ADR-RES; 4.6 µM (inactive) with OVCAR-5; 6.41 µM (inactive) in the assay with OVCAR-8; 2.44 µM (inactive) in the assay with RPMI-8226. The GI50 in the assay on RXF 393 was 6.07 µM (inactive); with SF-295 it was 5.9 µM (inactive); in the assay on SK-MEL-28, 7 µM (inactive); in the assay with SK-OV-3, 6.15 µM (inactive); in the assay with SNB-19, 6.55 µM (inactive); in the assay on U-251, 5.12 µM (inactive). Also, the GI50 in the assay with UACC-62 was 4.4 µM (inactive).
